Measured values as given in the OligoGym collection.
“And” between values parts separate entries of the source, which are not always exact repeats. Equal entries are not always repeated. After the bases stand the sugars from the 5' end (letter, count) and the backbone: PS all phosphorothioate, else s phosphorothioate and o phosphodiester by linkage. Methylation of C is not given here. l = locked nucleic acid (LNA); d = 2'-deoxy (DNA)

Key:
MYH7 = details: ASO, CC-2580, 5 µM
HTRA1 = details: ASO, U251, 5 µM
ANGPTL2 = details: ASO

Sequence	target mRNA inhibition (MYH7)	target mRNA inhibition (HTRA1)	also measured
TCAGCTTGGCGATGATCT (sugars ldlddlddddddldldll, PS)	-25% and -42%		
GAAGTACTTTAATAGCT (sugars l4 d9 l4, PS)		47%	
TGATGACTCAGTTAAAGG (sugars l3 d11 l4, PS)		80%	
CAGCTTGGCGATGATCT (sugars ldldldddddddlddll, PS)	21% and 3%		
ATCGACTGCATTAGTT (sugars l4 d9 l3, PS)		63%	
CTTCTTCTATCTACGCAT (sugars l4 d12 l2, PS)		86%	
ATTGTATCGACTGCATTAG (sugars l2 d13 l4, PS)		66%	
CTTGGCAATGATCTCATCC (sugars ldldlddddddlddlddll, PS)	-4% and -29%		
TCAGCTTGGCGATGATCT (sugars llddlddddddddldlll, PS)	51% and 37%		
CAGCTTGGCGATGATCT (sugars l1 d2 l1 d11 l2, PS)	27% and 2%		
CAGCTTGGCGATGATCT (sugars lldlddddddlldddll, PS)	24% and 13%		
TATCGACTGCATTAGT (sugars l4 d8 l4, PS)		81%	
CAGCTTGGCGATGATCT (sugars lddlldddddddlldll, PS)	38% and 22%		
AGAAGTACTTTAATAGCTC (sugars l4 d12 l3, PS)		84%	
CAGCTTGGCGATGATCT (sugars lddlddddlddddddll, PS)	34% and 17%		
ATCGACTGCATTAGTT (sugars l4 d8 l4, PS)		56%	
ACTCAGTTAAAGGAGGAG (sugars l2 d12 l4, PS)		44%	
CTTGGCAATGATCTCATCC (sugars ldddddllldddddlddll, PS)	29% and 20%		
TCTTCTATCTACGCAT (sugars l4 d9 l3, PS)		85%	
CTTGGCAATGATCTCATCC (sugars ldddddllddddlddldll, PS)	24% and 0%		
CAGCTTGGCGATGATCT (sugars ldddddddddlldldll, PS)	47% and 30%		
CAGCTTGGCGATGATCT (sugars lldddddddllddldll, PS)	17% and 3%		
TGTATCGACTGCATTAGT (sugars l3 d13 l2, PS)		78%	
GTATCGACTGCATTAG (sugars l4 d8 l4, PS)		91%	
CTTGGCAATGATCTCATCC (sugars lddldddddddldllddll, PS)	56% and 39%		

Sequence	target mRNA inhibition (MYH7)	target mRNA inhibition (HTRA1)	also measured
TCAGCTTGGCGATGATCT (sugars lddldllddlddddddll, PS)	16% and -2%		
TCAGCTTGGCGATGATCT (sugars l2 d5 l1 d6 l4, PS)	72% and 49%		
CAGCTTGGCGATGATCT (sugars llddddddddlddldll, PS)	37% and 33%		
TCAGCTTGGCGATGATCT (sugars lddldddddddldlddll, PS)	37% and 32%		
CTTGGCAATGATCTCATCC (sugars lddddddddlddddlldll, PS)	45% and 31%		
GTATCGACTGCATTAGT (sugars l4 d11 l2, PS)		84%	
CAGCTTGGCGATGATCT (sugars lllddlddddddlddll, PS)	25% and 0%		
CTTGGCAATGATCTCATCC (sugars l3 d13 l3, PS)	71% and 46%		
CAGCTTGGCGATGATCT (sugars l3 d2 l1 d9 l2, PS)	75% and 59%		
CTTGGCAATGATCTCATCC (sugars l2 d1 l1 d11 l4, PS)	81% and 60%		
TCAGCTTGGCGATGATCT (sugars llddlddddddlddldll, PS)	-37% and -45%		
CTTGGCAATGATCTCATCC (sugars lldddddddlddddldlll, PS)	67% and 43%		
AAGTACTTTAATAGCTCA (sugars l4 d11 l3, PS)		72%	
ACTCAGTTAAAGGAGGAGA (sugars l4 d13 l2, PS)		33%	
CAGCTTGGCGATGATCT (sugars lddllddlddddddlll, PS)	15% and -9%		
CAGCTTGGCGATGATCT (sugars lddlddddddlldldll, PS)	18% and 5%		
TCAGCTTGGCGATGATCT (sugars lddldlldlddddddlll, PS)	36% and 34%		
CTTGGCAATGATCTCATCC (sugars lldlddddddddlddldll, PS)	38% and 23%		
TCAGCTTGGCGATGATCT (sugars l2 d10 l1 d2 l3, PS)	67% and 55%		
TCAGCTTGGCGATGATCT (sugars ldldlldldddddddlll, PS)	35% and 16%		
CAGCTTGGCGATGATCT (sugars lddlddddddlddllll, PS)	29% and 23%		
GCTTCTTCTATCTACGCA (sugars l1 d15 l2, PS)		57%	
CTTGGCAATGATCTCATCC (sugars ldddddllddddldlddll, PS)	67% and 52%		
CAGCTTGGCGATGATCT (sugars lddlddddddddldlll, PS)	48% and 26%		
AGAAGTACTTTAATAGC (sugars l4 d9 l4, PS)		78%	

Sequence	target mRNA inhibition (MYH7)	target mRNA inhibition (HTRA1)	also measured
CTTGGCAATGATCTCATCC (sugars lddddddlddlddldldll, PS)	6% and -16%		
TCAGCTTGGCGATGATCT (sugars l2 d8 l1 d4 l3, PS)	39% and 27%		
GCAATGTGTAAGAAGT (sugars l3 d10 l3, PS)		85%	
CTTGGCAATGATCTCATCC (sugars ldddldddddddlddldll, PS)	22% and 3%		
TCAGCTTGGCGATGATCT (sugars lddldlddddddldldll, PS)	4% and -7%		
CAGCTTGGCGATGATCT (sugars lddldldddddldldll, PS)	-1% and -24%		
CTTGGCAATGATCTCATCC (sugars ldddddlddlddlddldll, PS)	-6% and -21%		
CAGCTTGGCGATGATCT (sugars lddlldddlldddddll, PS)	36% and 19%		
CAGCTTGGCGATGATCT (sugars ldlldddddddldddll, PS)	38% and 20%		
CTTGGCAATGATCTCATCC (sugars ldddddddldlldldldll, PS)	-7% and -17%		
TTGTATCGACTGCATTAGTT (sugars l3 d15 l2, PS)		58%	
CAGCTTGGCGATGATCT (sugars lldllddddddldddll, PS)	45% and 31%		
CAGCTTGGCGATGATCT (sugars l2 d9 l1 d3 l2, PS)	60% and 37%		
TCAGCTTGGCGATGATCT (sugars l2 d10 l1 d1 l4, PS)	46% and 45%		
CAGCTTGGCGATGATCT (sugars lldddddldddldldll, PS)	20% and 15%		
CAGCTTGGCGATGATCT (sugars lddlddddddllddlll, PS)	16% and 14%		
ATTGTATCGACTGCAT (sugars l3 d10 l3, PS)		91%	
TTCTATCTACGCATTGT (sugars l3 d11 l3, PS)		83%	
CAGCTTGGCGATGATCT (sugars ldldldldlddddddll, PS)	-17% and -15%		
CTTGGCAATGATCTCATCC (sugars lldddddddlddlddldll, PS)	59% and 36%		
CTTGGCAATGATCTCATCC (sugars llddlddddddldldldll, PS)	-25% and -43%		
ACGCATTGTATCGACT (sugars l3 d10 l3, PS)		95%	
TTCTTCTATCTACGCAT (sugars l4 d10 l3, PS)		85%	
TCAGCTTGGCGATGATCT (sugars lddldddddddlldldll, PS)	14% and 8%		
CTTGGCAATGATCTCATCC (sugars l2 d10 l2 d2 l3, PS)	74% and 49%		

Sequence	target mRNA inhibition (MYH7)	target mRNA inhibition (HTRA1)	also measured
CAGCTTGGCGATGATCT (sugars lddlddddlldddddll, PS)	0% and -24%		
CTTGGCAATGATCTCATCC (sugars ldddddddlddldldldll, PS)	37% and 12%		
CAGCTTGGCGATGATCT (sugars ldldllddddddlddll, PS)	31% and 17%		
TCAGCTTGGCGATGATCT (sugars l2 d8 l1 d3 l4, PS)	48% and 46%		
CTTGGCAATGATCTCATCC (sugars lddddddlddlldldldll, PS)	18% and -7%		
CAGCTTGGCGATGATCT (sugars lddlddddddldlddll, PS)	11% and 15%		
CAGCTTGGCGATGATCT (sugars lddldddddddlddlll, PS)	3% and -1%		
ATTGTATCGACTGCAT (sugars l4 d8 l4, PS)		83%	
CAGCTTGGCGATGATCT (sugars lddlldddddlldldll, PS)	22% and 14%		
GTATCGACTGCATTAGTT (sugars l4 d12 l2, PS)		82%	
CAGCTTGGCGATGATCT (sugars lddldddddddllddll, PS)	-2% and -12%		
AATTTACAGTTCTTTGTC (sugars l4 d10 l4, PS)			target mRNA inhibition (ANGPTL2; 5 µM): 78.2%; target mRNA inhibition (ANGPTL2; 25 µM): 83.3%
CAGCTTGGCGATGATCT (sugars lddldldddddldddll, PS)	22% and 7%		
CTTGGCAATGATCTCATCC (sugars lddddddlddddlddddll, PS)	41% and 19%		
AATGTGTAAGAAGTAC (sugars l4 d8 l4, PS)		83%	
CTTGGCAATGATCTCATCC (sugars lddddddlddldlddddll, PS)	45% and 29%		
CAATGTGTAAGAAGTAC (sugars l4 d9 l4, PS)		68%	
CTTCTTCTATCTACGCA (sugars l4 d11 l2, PS)		87%	
TCAGCTTGGCGATGATCT (sugars l2 d13 l3, PS)	64% and 40%		
TTGTATCGACTGCATTAG (sugars l3 d12 l3, PS)		77%	
ATGTGTAAGAAGTACTT (sugars l4 d9 l4, PS)		34%	
GAACTCAGCCCAGTAGAC (sugars l1 d15 l2, PS)			target mRNA inhibition (ANGPTL2; 5 µM): -4.7%; target mRNA inhibition (ANGPTL2; 25 µM): 17.5%
TCGACTGCATTAGTTG (sugars l4 d8 l4, PS)		84%	
GAAATGTTATCTAATACT (sugars l4 d10 l4, PS)			target mRNA inhibition (ANGPTL2; 5 µM): 34.5%; target mRNA inhibition (ANGPTL2; 25 µM): 49%
TCTACGCATTGTATCG (sugars l3 d11 l2, PS)		99% and 92%	
